Source: US6355799B1, “Substituted benzene compounds, process for their preparation, and herbicidal and defoliant compositions containing them” (ISK Americas Incorporated, priority 1997, dated 2002)

Experiments:
Type in all cases: in vivo
[1] = tested on: upland rice (Oryza sp., var. Tebonnet, RICE); experiment: Pre-emerge test, crop safety; settings: pre-emerge, rated 14 days after application, 0 = no damage, 100 = complete death
How it was run: (§1)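 Visual ratings on a 0-100 scale (0 no damage, 100 all plants dead) were taken at 14 days after treatment. Rates of 15-1000 g ai/ha in acetone, 187 l/ha, were sprayed onto soil one day after planting (pre-emerge) or onto 2-3 leaf plants with 0.25% v/v surfactant (post-emerge).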

[2] = tested on: field corn (Zea mays L., var. Dekalb 535, CORN); experiment: Pre-emerge test, crop safety; settings: pre-emerge, rated 14 days after application, 0 = no damage, 100 = complete death
How it was run: as §1

[3] = tested on: upland rice (Oryza sp., var. Tebonnet, RICE); experiment: Post-emerge test, crop safety; settings: phytotoxicity rating 0-100 (0 no damage, 100 complete death), 14 days after application
How it was run: (§2)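 Each test used a mechanized track sprayer delivering 187 l/ha of acetone solution at 15–1000 g ai/ha. Post-emerge foliage at 2–3 leaves was treated with added 0.25% v/v non-ionic surfactant and bottom-watered only. Injury was assessed on day 14, where 100 means total kill.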

[4] = tested on: field corn (Zea mays L., var. Dekalb 535, CORN); experiment: Post-emerge test, crop safety; settings: phytotoxicity rating 0-100 (0 no damage, 100 complete death), 14 days after application
How it was run: as §2

[5] = tested on: redroot pigweed (Amaranthus retroflexus, AMARE); experiment: Pre-emerge test, greenhouse herbicide activity screening; settings: pre-emerge, rated 14 days after application, 0 = no damage, 100 = complete death
How it was run: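 Rating: 0–100 visual injury, 14 DAA. Application: acetone, 187 l/ha, 15–1000 g ai/ha, flat-fan track sprayer with nozzle 40–45 cm above soil or canopy. Post-emerge runs used 0.25% v/v surfactant on 2–3 leaf plants.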

[6] = tested on: velvetleaf (Abutilon theophrasti, ABUTH); experiment: Post-emerge test, greenhouse herbicide activity screening; settings: phytotoxicity rating 0-100 (0 no damage, 100 complete death), 14 days after application
How it was run: (§3)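 Compounds in acetone were track-sprayed at 15-1000 g ai/ha (187 l/ha) on sandy loam pots: pre-emerge one day after seeding, post-emerge at 2-3 leaf stage with 0.25% v/v non-ionic surfactant. Phytotoxicity was rated 14 days later on a 0 (no damage) to 100 (complete death) scale.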

[7] = tested on: common ragweed (Ambrosia artemisizfolia L., AMBEL); experiment: as above; settings: phytotoxicity rating 0-100 (0 no damage, 100 complete death), 14 days after application
How it was run: as §3

[8] = tested on: ivyleaf morningglory (Ipomoea hederacea, IPOHE); experiment: as above; settings: phytotoxicity rating 0-100 (0 no damage, 100 complete death), 14 days after application
How it was run: as §3

[9] = tested on: sicklepod (Cassia obtusifolia, CASOB); experiment: as above; settings: phytotoxicity rating 0-100 (0 no damage, 100 complete death), 14 days after application
How it was run: as §3

[10] = tested on: barnyardgrass (Echinochloa crus-galli, ECHCG); experiment: as above; settings: phytotoxicity rating 0-100 (0 no damage, 100 complete death), 14 days after application
How it was run: as §3

[11] = tested on: redroot pigweed (Amaranthus retroflexus, AMARE); experiment: as above; settings: phytotoxicity rating 0-100 (0 no damage, 100 complete death), 14 days after application
How it was run: as §3

[12] = tested on: lambsquarters (Chenopodium album, CHEAL); experiment: as above; settings: phytotoxicity rating 0-100 (0 no damage, 100 complete death), 14 days after application
How it was run: as §3

[13] = tested on: johnsongrass (Sorghum halepense, SORHA); experiment: as above; settings: phytotoxicity rating 0-100 (0 no damage, 100 complete death), 14 days after application
How it was run: as §3

[14] = tested on: green foxtail (Setaria viridis, SETVI); experiment: as above; settings: phytotoxicity rating 0-100 (0 no damage, 100 complete death), 14 days after application
How it was run: as §3

[15] = tested on: large crabgrass (Digitaria sanguinalis, DIGSA); experiment: as above; settings: phytotoxicity rating 0-100 (0 no damage, 100 complete death), 14 days after application
How it was run: as §3

[16] = tested on: velvetleaf (Abutilon theophrasti, ABUTH); experiment: Pre-emerge test, greenhouse herbicide activity screening; settings: pre-emerge, rated 14 days after application, 0 = no damage, 100 = complete death
How it was run: (§4)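 Plants grown in 10 cm pots of sandy loam mix received acetone-dissolved compounds through a moving flat-fan nozzle. Doses ranged from 15 to 1000 g ai/ha. Pre-emerge pots were seeded one day earlier, post-emerge pots 8–21 days earlier. Fourteen days on, each pot was graded 0–100 for damage.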

[17] = tested on: common ragweed (Ambrosia artemisizfolia L., AMBEL); experiment: as above; settings: pre-emerge, rated 14 days after application, 0 = no damage, 100 = complete death
How it was run: as §4

[18] = tested on: ivyleaf morningglory (Ipomoea hederacea, IPOHE); experiment: as above; settings: pre-emerge, rated 14 days after application, 0 = no damage, 100 = complete death
How it was run: as §4

[19] = tested on: sicklepod (Cassia obtusifolia, CASOB); experiment: as above; settings: pre-emerge, rated 14 days after application, 0 = no damage, 100 = complete death
How it was run: as §4

[20] = tested on: barnyardgrass (Echinochloa crus-galli, ECHCG); experiment: as above; settings: pre-emerge, rated 14 days after application, 0 = no damage, 100 = complete death
How it was run: as §4

[21] = tested on: lambsquarters (Chenopodium album, CHEAL); experiment: as above; settings: pre-emerge, rated 14 days after application, 0 = no damage, 100 = complete death
How it was run: as §4

[22] = tested on: johnsongrass (Sorghum halepense, SORHA); experiment: as above; settings: pre-emerge, rated 14 days after application, 0 = no damage, 100 = complete death
How it was run: as §4

[23] = tested on: green foxtail (Setaria viridis, SETVI); experiment: as above; settings: pre-emerge, rated 14 days after application, 0 = no damage, 100 = complete death
How it was run: as §4

[24] = tested on: large crabgrass (Digitaria sanguinalis, DIGSA); experiment: as above; settings: pre-emerge, rated 14 days after application, 0 = no damage, 100 = complete death
How it was run: as §4

COc1c(Cl)cc(F)c(-n2c(=O)cc(C(F)(F)F)n(C)c2=O)c1NC(C)=O [2-1]
Pre-emerge crop damage RICE (phytotoxicity rating, scale 0-100) ([1]; 63 g ai/ha): 80
Pre-emerge crop damage RICE (phytotoxicity rating, scale 0-100) ([1]; 250 g ai/ha): 90
Pre-emerge crop damage CORN (phytotoxicity rating, scale 0-100) ([2]; 63 g ai/ha): 30
Pre-emerge crop damage CORN (phytotoxicity rating, scale 0-100) ([2]; 250 g ai/ha): 80
Post-emerge Herbicidal Activity RICE (crop damage) ([3]; 63 g ai/ha): 30
Post-emerge Herbicidal Activity RICE (crop damage) ([3]; 250 g ai/ha): 70
Post-emerge Herbicidal Activity CORN (crop damage) ([4]; 63 g ai/ha): 10
Post-emerge Herbicidal Activity CORN (crop damage) ([4]; 250 g ai/ha): 15
Pre-emerge Herbicidal Activity AMARE (phytotoxicity rating, scale 0-100) ([5]; 63 g ai/ha): 60
Pre-emerge Herbicidal Activity AMARE (phytotoxicity rating, scale 0-100) ([5]; 250 g ai/ha): 100
Post-emerge Herbicidal Activity ABUTH ([6]; 63 g ai/ha): 100
Post-emerge Herbicidal Activity ABUTH ([6]; 250 g ai/ha): 100
Post-emerge Herbicidal Activity AMBEL ([7]; 63 g ai/ha): 30
Post-emerge Herbicidal Activity AMBEL ([7]; 250 g ai/ha): 85
Post-emerge Herbicidal Activity IPOHE ([8]; 63 g ai/ha): 100
Post-emerge Herbicidal Activity IPOHE ([8]; 250 g ai/ha): 100
Post-emerge Herbicidal Activity CASOB ([9]; 63 g ai/ha): 50
Post-emerge Herbicidal Activity CASOB ([9]; 250 g ai/ha): 100
Post-emerge Herbicidal Activity ECHCG ([10]; 63 g ai/ha): 0
Post-emerge Herbicidal Activity ECHCG ([10]; 250 g ai/ha): 10
Post-emerge Herbicidal Activity AMARE ([11]; 63 g ai/ha): 50
Post-emerge Herbicidal Activity AMARE ([11]; 250 g ai/ha): 100
Post-emerge Herbicidal Activity CHEAL ([12]; 63 g ai/ha): 95
Post-emerge Herbicidal Activity CHEAL ([12]; 250 g ai/ha): 100
Post-emerge Herbicidal Activity SORHA ([13]; 63 g ai/ha): 0
Post-emerge Herbicidal Activity SORHA ([13]; 250 g ai/ha): 0
Post-emerge Herbicidal Activity SETVI ([14]; 63 g ai/ha): 0
Post-emerge Herbicidal Activity SETVI ([14]; 250 g ai/ha): 30
Post-emerge Herbicidal Activity DIGSA ([15]; 63 g ai/ha): 0
Post-emerge Herbicidal Activity DIGSA ([15]; 250 g ai/ha): 0
Pre-emerge Herbicidal Activity ABUTH (phytotoxicity rating, scale 0-100) ([16]; 63 g ai/ha): 100
Pre-emerge Herbicidal Activity ABUTH (phytotoxicity rating, scale 0-100) ([16]; 250 g ai/ha): 100
Pre-emerge Herbicidal Activity AMBEL (phytotoxicity rating, scale 0-100) ([17]; 63 g ai/ha): 50
Pre-emerge Herbicidal Activity AMBEL (phytotoxicity rating, scale 0-100) ([17]; 250 g ai/ha): 100
Pre-emerge Herbicidal Activity IPOHE (phytotoxicity rating, scale 0-100) ([18]; 63 g ai/ha): 95
Pre-emerge Herbicidal Activity IPOHE (phytotoxicity rating, scale 0-100) ([18]; 250 g ai/ha): 100
Pre-emerge Herbicidal Activity CASOB (phytotoxicity rating, scale 0-100) ([19]; 63 g ai/ha): 80
Pre-emerge Herbicidal Activity CASOB (phytotoxicity rating, scale 0-100) ([19]; 250 g ai/ha): 100
Pre-emerge Herbicidal Activity ECHCG (phytotoxicity rating, scale 0-100) ([20]; 63 g ai/ha): 10
Pre-emerge Herbicidal Activity ECHCG (phytotoxicity rating, scale 0-100) ([20]; 250 g ai/ha): 70
Pre-emerge Herbicidal Activity CHEAL (phytotoxicity rating, scale 0-100) ([21]; 63 g ai/ha): 90
Pre-emerge Herbicidal Activity CHEAL (phytotoxicity rating, scale 0-100) ([21]; 250 g ai/ha): 100
Pre-emerge Herbicidal Activity SORHA (phytotoxicity rating, scale 0-100) ([22]; 63 g ai/ha): 30
Pre-emerge Herbicidal Activity SORHA (phytotoxicity rating, scale 0-100) ([22]; 250 g ai/ha): 70
Pre-emerge Herbicidal Activity SETVI (phytotoxicity rating, scale 0-100) ([23]; 63 g ai/ha): 80
Pre-emerge Herbicidal Activity SETVI (phytotoxicity rating, scale 0-100) ([23]; 250 g ai/ha): 95
Pre-emerge Herbicidal Activity DIGSA (phytotoxicity rating, scale 0-100) ([24]; 63 g ai/ha): 20
Pre-emerge Herbicidal Activity DIGSA (phytotoxicity rating, scale 0-100) ([24]; 250 g ai/ha): 100
